Results as given in US5567692A, “9-[(substituted glycyl) amido)]-6-demethyl-6-deoxytetracyclines” (priority 1995, dated 1996).
In brackets after ≈: the same amount, converted by molar mass. Structures can show the parent of a compound that is named as a salt. Where two headings read alike, the source gives them in different places.

Legend:
S. aureus UBMS 90-3 = test: MIC, agar dilution; assay type: cell-based; conditions: Staphylococcus aureus, UBMS903, 18 h
E. coli UBMS 90-4 Tet M = test: microbe, parasite or virus in culture; assay type: cell-based; conditions: Escherichia coli, UBMS904TETM, 18 h
E. coli #311 (MP) = test: MIC, agar dilution; assay type: cell-based; conditions: Escherichia coli, 18 h
S. aureus ATCC 29213 = test: MIC, agar dilution; assay type: cell-based; conditions: Staphylococcus aureus, ATCC29213, 18 h, S. aureus ATCC 29213
E. coli J3272 Tet C = test: microbe, parasite or virus in culture; assay type: cell-based; conditions: Escherichia coli, J3272TETC, 18 h
[1] = test system: E. coli UBMS 89-2 Tet sens.; test: MIC, agar dilution; assay type: cell-based; conditions: Escherichia coli, 18 h
Enterococcus 12201 = test: MIC, agar dilution; assay type: cell-based; conditions: Enterococcus, 12201, 18 h
[2] = test system: S. aureus UBMS 88-5 Tet M; test: microbe, parasite or virus in culture; assay type: cell-based; conditions: Staphylococcus aureus, UBMS885TETM, 18 h
E. coli J3272 Tet D = test: microbe, parasite or virus in culture; assay type: cell-based; conditions: Escherichia coli, J3272TETD, 18 h
E. faecalis ATCC 29212 = test: MIC, agar dilution; assay type: cell-based; conditions: Enterococcus faecalis, ATCC29212, 18 h, E. faecalis ATCC 29212; read-out: MIC
S. aureus SMITH (MP) = test: MIC, agar dilution; assay type: cell-based; conditions: Staphylococcus aureus, 18 h; S. aureus SMITH (MP); read-out: MIC
S. aureus IVES 2943 = test: MIC, agar dilution; assay type: cell-based; conditions: Staphylococcus aureus, IVES2943, 18 h
[3] = test system: S. aureus UBMS 90-2 Tet M; test: microbe, parasite or virus in culture; assay type: cell-based; conditions: Staphylococcus aureus, UBMS902TETM, 18 h
E. coli BAJ9003 IMP MUT = test: microbe, parasite or virus in culture; assay type: cell-based; conditions: Escherichia coli, BAJ9003IMPMUT, 18 h
[4] = test system: S. aureus UBMS 88-7 Tet K; test: microbe, parasite or virus in culture; assay type: cell-based; conditions: Staphylococcus aureus, UBMS887TETK, 18 h
E. coli J2175 = test: MIC, agar dilution; assay type: cell-based; conditions: Escherichia coli, 18 h, read-out: MIC
[5] = test system: S. aureus UBMS 90-1 Tet M; test: microbe, parasite or virus in culture; assay type: cell-based; conditions: Staphylococcus aureus, UBMS901TETM, 18 h
E. coli PRP1 Tet A = test: microbe, parasite or virus in culture; assay type: cell-based; conditions: Escherichia coli, PRP1TETA, 18 h
S. aureus UBMS 88-4 = test: MIC, agar dilution; assay type: cell-based; conditions: Staphylococcus aureus, UBMS884, 18 h
E. coli ATCC 25922 = test: MIC, agar dilution; assay type: cell-based; conditions: Escherichia coli, ATCC25922, 18 h
[6] = test system: X. maltophilia NEMC 87210; test: MIC, agar dilution; assay type: cell-based; conditions: Stenotrophomonas maltophilia, NEMC87210, 18 h
[7] = test system: Ps. aeruginosa ATCC 27853; test: MIC, agar dilution; assay type: cell-based; conditions: Pseudomonas aeruginosa, ATCC27853, 18 h
S. aureus NEMC 8769 = test: MIC, agar dilution; assay type: cell-based; conditions: Staphylococcus aureus, NEMC8769, 18 h
E. coli UBMS 90-5 = test: microbe, parasite or virus in culture; assay type: cell-based; conditions: Escherichia coli, UBMS905, 18 h, E. coli UBMS 90-5; read-out: MIC
[8] = test system: E. coli MC 4100 TNIOC Tet B; test: microbe, parasite or virus in culture; assay type: cell-based; conditions: Escherichia coli, 18 h
E. coli UBMS 89-1 Tet M = test: microbe, parasite or virus in culture; assay type: cell-based; conditions: Escherichia coli, UBMS891TETM, 18 h
S. marcescens FPOR 8733 = test: MIC, agar dilution; assay type: cell-based; conditions: Serratia marcescens, FPOR8733, 18 h, read-out: MIC
[9] = test system: E. coli MC 4100 Tet sens.; test: MIC, agar dilution; assay type: cell-based; conditions: Escherichia coli, 18 h
S. aureus IVES 1983 = test: MIC, agar dilution; assay type: cell-based; conditions: Staphylococcus aureus, IVES1983, 18 h
S. aureus ROSE (MP) = test: MIC, agar dilution; assay type: cell-based; conditions: Staphylococcus aureus, 18 h
E. coli UBMS 88-1 Tet B = test: microbe, parasite or virus in culture; assay type: cell-based; conditions: Escherichia coli, UBMS881TETB, 18 h
[10] = test system: S. hemolyticus AVHAH 88-3; test: MIC, agar dilution; assay type: cell-based; conditions: Streptococcus pyogenes, AVHAH883, 18 h
[11] = test system: Staphylococcus aureus strain Smith (tetracycline sensitive); test: Acute lethal infection in mice, S. aureus Smith; assay type: in vivo; conditions: for ED50: Staphylococcus aureus, 168 h, mice, S. aureus Smith (Sens), 7 day survival, read-out: ED50
[12] = Enterococcus 12201, read-out: MIC
[13] = Ps. aeruginosa ATCC 27853, read-out: MIC
[14] = S. hemolyticus AVHAH 88-3, read-out: MIC

Compound | MIC (E. coli UBMS 90-4 Tet M) [µg/mL] | MIC (E. coli #311 (MP)) [µg/mL] | MIC (S. aureus ATCC 29213; read-out: MIC) [µg/mL] | MIC (E. coli J3272 Tet C) [µg/mL] | MIC [1] [µg/mL] | MIC [2] [µg/mL] | MIC (E. coli J3272 Tet D) [µg/mL] | MIC (E. faecalis ATCC 29212) [µg/mL] | MIC (S. aureus SMITH (MP)) [µg/mL] | MIC [3] [µg/mL] | MIC (E. coli BAJ9003 IMP MUT) [µg/mL] | MIC [4] [µg/mL] | MIC (E. coli J2175) [µg/mL] | MIC [5] [µg/mL] | MIC (S. aureus UBMS 88-4) [µg/mL] | MIC (E. coli UBMS 90-5) [µg/mL] | MIC (E. coli UBMS 89-1 Tet M) [µg/mL] | MIC (S. marcescens FPOR 8733) [µg/mL] | MIC [9] [µg/mL] | MIC (E. coli UBMS 88-1 Tet B) [µg/mL] | other results
CN(C)CC(=O)Nc1ccc2c(c1O)C(=O)C1=C(O)[C@]3(O)C(=O)C(C(=O)NCN4CCCC4)=C(O)[C@@H](N(C)C)C3CC1C2 (stereo partly drawn) [EE, [4S-(4alpha,12aalpha)]-4-(Dimethylamino)-9-[[(dimethylamino)acetyl]amino]-1,4,4a,5,5a,6,11,12a-octahydro-3,10,12,12a-tetrahydroxy-1,11-dioxo-N-(l-pyrrolidinylmethyl)-2-naphthacenecarboxamide] | 0.25 (≈ 0.418 µM) | 0.5 (≈ 0.837 µM) | 0.25 (≈ 0.418 µM) | 1 (≈ 1.67 µM) | 0.5 (≈ 0.837 µM) | 0.25 (≈ 0.418 µM) | 0.25 (≈ 0.418 µM) | 0.12 (≈ 0.201 µM) | 0.25 (≈ 0.418 µM) | 0.25 (≈ 0.418 µM) | 0.12 (≈ 0.201 µM) | 1 (≈ 1.67 µM) | 0.5 (≈ 0.837 µM) | 0.25 (≈ 0.418 µM) | 0.25 (≈ 0.418 µM) | 0.25 (≈ 0.418 µM) | 0.25 (≈ 0.418 µM) | 4 (≈ 6.69 µM) | 0.12 (≈ 0.201 µM) | 0.5 (≈ 0.837 µM) | MIC (S. aureus UBMS 90-3; S. aureus UBMS 90-3): 0.12 µg/mL (≈ 0.201 µM); MIC (Enterococcus 12201; [12]): 0.25 µg/mL (≈ 0.418 µM); MIC (S. aureus IVES 2943): 2 µg/mL (≈ 3.35 µM); MIC (E. coli PRP1 Tet A): 2 µg/mL (≈ 3.35 µM); MIC (E. coli ATCC 25922): 0.25 µg/mL (≈ 0.418 µM); MIC ([6]; X. maltophilia NEMC 87210, read-out: MIC): 2 µg/mL (≈ 3.35 µM); MIC [7, 13]: 16 µg/mL (≈ 26.8 µM); MIC (S. aureus NEMC 8769; read-out: MIC): 0.25 µg/mL (≈ 0.418 µM); MIC [8]: 0.5 µg/mL (≈ 0.837 µM); MIC (S. aureus IVES 1983): 2 µg/mL (≈ 3.35 µM); MIC (S. aureus ROSE (MP)): 8 µg/mL (≈ 13.4 µM); MIC [10, 14]: 0.5 µg/mL (≈ 0.837 µM)
CCCNCC(=O)Nc1ccc2c(c1O)C(=O)C1=C(O)[C@]3(O)C(=O)C(C(N)=O)=C(O)[C@@H](N(C)C)C3CC1C2 (stereo partly drawn) [C, [4S-(4alpha,12aalpha)]-4-(Dimethylamino)-1,4,4a,5,5a,6,11,12a-octahydro-3,10,12,12a-tetrahydroxy-1,11-dioxo-9-[[(propylamino)acetyl]amino]-2-naphthacenecarboxamide dihydrochloride] | 0.25 |  | 0.25 | 0.5 | 0.25 | 0.5 | 0.12 | 0.12 | 0.12 | 0.25 | 0.06 | 2 | 0.25 | 0.25 | 0.25 | 0.25 | 0.25 | 4 | 0.12 | 0.5 | MIC (S. aureus UBMS 90-3): 0.06 µg/mL; MIC (E. coli #311 (MP); E. coli #311 (MP), read-out: MIC): 0.5 µg/mL; ED50 ([11]; iv, Intraveneous): 1 to 2 mg/kg; ED50 ([11]; po, Oral): > 16 mg/kg; in vivo activity (in words) ([11]; tested intravenously against the minocycline sensitive organism S. aureus Smith): very good in vivo activity; MIC (Enterococcus 12201): 0.25 µg/mL; MIC (S. aureus IVES 2943; S. aureus IVES 2943, read-out: MIC): 4 µg/mL; MIC (E. coli PRP1 Tet A): 1 µg/mL; MIC (E. coli ATCC 25922): 0.12 µg/mL; MIC [6]: 4 µg/mL; MIC [7, 13]: 16 µg/mL; MIC (S. aureus NEMC 8769): 0.06 µg/mL; MIC (S. aureus IVES 1983; S. aureus IVES 1983, read-out: MIC): 4 µg/mL; MIC (S. aureus ROSE (MP); read-out: MIC): 16 µg/mL; MIC [10, 14]: 0.5 µg/mL
CCN(CC)CC(=O)Nc1ccc2c(c1O)C(=O)C1=C(O)[C@]3(O)C(=O)C(C(N)=O)=C(O)[C@@H](N(C)C)C3CC1C2 (stereo partly drawn) [O, [4S-(4alpha,12aalpha)]-9-[[(Diethylamino)acetyl]amino]-4-(dimethylamino)-1,4,4a,5,5a,6,11,12a-octahydro-3,10,12,12a-tetrahydroxy-1,11-dioxo-2-naphthacenecarboxamide dihydrochloride] | 0.5 | 1 |  | 1 | 1 | 0.5 | 0.5 | 0.25 | 0.25 | 0.5 | 0.12 | 0.5 | 1 | 0.5 | 0.5 | 1 | 0.5 | 8 | 0.5 | 1 | MIC (S. aureus UBMS 90-3; S. aureus UBMS 90-3, read-out: MIC): 0.25 µg/mL; MIC (S. aureus ATCC 29213): 0.5 µg/mL; MIC (Enterococcus 12201; [12]): 0.25 µg/mL; MIC (S. aureus IVES 2943): 1 µg/mL; MIC (E. coli ATCC 25922; read-out: MIC): 0.5 µg/mL; MIC [6]: 1 µg/mL; MIC [7]: 32 µg/mL; MIC (S. aureus NEMC 8769): 1 µg/mL; MIC [8]: 1 µg/mL; MIC (S. aureus IVES 1983): 0.5 µg/mL; MIC (S. aureus ROSE (MP)): 2 µg/mL; MIC [10]: 2 µg/mL
